Assay: Release of QX-314 into water through dialysis membrane (HPLC)
Assay type: physicochemical
Details: dialysis membrane in 20 ml ultrapure water; FIG. 6
Experimental: High Performance Liquid Chromatography (HPLC) was used to assess the amount of QX-314 remaining in the supernatant after complexing with the NPs. The conditions for HPLC were as follows. The mobile phase consisted of 50 mM phosphate buffer, with 0.16% triethylamine, pH 4.0 buffer:methanol:acetonitrile=60:30:10 vol/vol/vol. The chromatographic conditions were: 30 μL of solution injected, 40° C. constant temperature, flow rate of 0.3 ml/min, and wavelength detection of 210 nm. The column used was a Supelco C18 Column 25 cm×4.6 mm.
The DPPC:PA (mass ratio=1:1) nanoparticles were complexed with QX-314 by incubating 0.5 mg of QX-314 with 1 mL of 0.25% (w/v) lipid solution in a 37° C. room on a gentle shaker. After 1 hour, the formulation was transferred to a dialysis membrane and incubated in 20 ml of ultrapure water. The amount of QX-314 released into the water was measured as a function of time using HPLC as described above. Aqueous solution of QX-314 in dialysis membrane was used as the control. A representative image of positively charged molecule (QX-314) complexed with negatively charged lipid (L-α-phosphatidic acid) is shown below.

Compound: CC[N+](CC)(CC)CC(=O)Nc1c(C)cccc1C [QX-314 solution, QX-314]
- burst release of QX-314 (time): ≤ 3 h

From US20260272954A1, “ANALGESIC COMPOUNDS COMPRISING CHARGED PARTICLES AND METHOD OF MANUFACTURE THEREOF” (UNIVERSITY OF CONNECTICUT, priority 2023, published 2026)
